Patent US4393210A, “1(2H)-Isoquinolone compounds and acid addition salts thereof” (Seiyaku Co., Ltd., priority 1980, dated 1983)
Counter-ions that a name gives are not always drawn.

Key:
[1] = tested on: ulcer generation caused by water-dipping restriction stress; experiment: Anti-ulcer activity, stress ulcer (water-dipping restriction stress); format: in vivo, Wister male rats; conditions: for Percent Inhibition (stress ulcer) / Ulcerous Index: oral; for Ulcerous Index: n=6, control 75.8
Experimental: The test compound was administered orally to Wister male rats (body weight, 200 to 230 g) and then the rats were tied up with a steel wire and dipped in water at 23° C. in a tank to the level of the xiphisternum of rats. After allowing the rats to stand for 7 hours in water, the rats were sacrificed and the stomach was extracted. 10 ml of a 1% formalin solution was injected into the stomach cavity and the stomach was dipped in a 1% formalin solution for 15 minutes to semi-harden the stomach. The stomach was excised along the greater curvature thereof and the ulcer generated in the portion of corpus ventriculi was observed.

gastric secretion = experiment: Gastric secretion inhibitory activity, pylorus ligation; format: in vivo, Wister male rats; conditions: for pH Value (gastric juice) / Amount of Gastric Juice / Amount of Output Secretion: 4 hours, n=10; for pH Value (gastric juice): control 1.71 ± 0.11; for Amount of Gastric Juice: control 2.51 ± 0.32; for Amount of Gastric Juice / Amount of Output Secretion: **p < 0.01; for Amount of Output Secretion: control 184 ± 27.2; for effect on volume of gastric juice, acid secretion and pH value: Table 2, 100 mg/kg
Experimental: The pylorus of Wister male rats (body weight, 180 to 200 g) fasted for 24 hours was ligated under ether anesthesia and, immediately thereafter, the test compound was administered into the duodenum. Four hours after the administration, the stomach was extracted and gastric juice was collected and centrifuged at 3,000 r.p.m. for 15 minutes. The volume of gastric juice, the pH value and the amount of output secretion were then determined with respect to the supernatant.

[2] = tested on: histamine-induced contraction, guinea pig ileum; experiment: Anti-histamine activity, histamine-induced contraction of extracted ileum (Magnus tube); conditions: 31° C.; for shift of histamine-induced contraction curve: treatment 30 seconds before inducing contraction; for anti-histamine activity: guinea pig ileum
Experimental: (§1) The ileum of guinea pig (body weight, 300 to 400 g) was extracted and suspended in a Magnus tobe containing Tyrode's solution (saturated with oxygen) at 31° C. and the inhibitory activity of the test compounds on the contraction induced by administration of histamine or acetylchloline was determined. The treatment with the test compounds was conducted 30 seconds before inducing the contraction.

[3] = tested on: contraction induced by acetylchloline, ileum of guinea pig; experiment: Anti-cholinergic activity, acetylcholine-induced contraction of extracted ileum (Magnus tube); conditions: 31° C.
Experimental: as §1

[4] = tested on: pain reaction induced by acetic acid injection; experiment: Analgesic activity, acetic acid stretching method (Koster et al); format: in vivo, ddy male mice; conditions: oral; for Number of Stretching: n=8, control 36.5 ± 6.5
Experimental: According to the acetic acid stretching method described by Koster et al [Fed. Pro., 18, 412 (1959)], Compound A was administered orally to ddy male mice (body weight, 20 to 25 g) fasted overnight before test. One hour after administration of Compound A, a 0.6% aqueous acetic acid solution was administered intraperitoneally at a dose of 0.35 ml per mouse and the stretching of the mice was observed 10 minutes after the administration of the acetic acid solution for a period of 10 minutes, and the percent inhibition was calculated.

Acute toxicity = conditions: mouse, in vivo; mice fasted overnight, observed for 7 days; route not stated
Experimental: The test compound was administered to ddy male mice (body weight, 20 to 25 g) fasted overnight before administration.

[5] = tested on: indomethacin-induced ulcer; experiment: Anti-ulcer activity, indomethacin-induced ulcer; format: in vivo, Wister male rats; conditions: for Percent Inhibition (indomethacin ulcer) / Ulcerous Index: oral; for Ulcerous Index: control 15.4, indomethacin 20 mg/kg s.c.
Experimental: A suspension of indomechacin in 0.25% CMC was administered subcutaneously at a dose of 20 mg/kg to Wister male rats (body weight, 125 to 150 g) fasted for 24 hours. The test compound was administered orally 30 minutes before the administration of indomethacin. Seven hours after the administration of indomethacin, the rats were sacrificed by dislocation of neck, and the stomach was extracted. 7.5 ml of 1% formalin solution was injected into the stomach cavity, and the stomack was hardened. The linear-type ulcer generated in the mucous membrane of the stomach was then observed.

[6] = tested on: decrease in body temperature induced by administration of reserpine; experiment: Anti-reserpine (anti-depression) activity, rectal temperature; format: in vivo, ddy male mice; conditions: oral, 50 and 100 mg/kg; reserpine 2 mg/kg s.c. twice
Experimental: Reserpine was administered subcutaneously to ddy male mice (body weight, 25 to 30 g) at a dose of 2 mg/kg and, after fasting for 18 hours, reserpine was again administered subcutaneously at a dose of 2 mg/kg. Five hours after the second administration of reserpine, the mice which indicated a constant decrease in body temperature were selected and administered orally with the test compound (Compound C), followed by measuring the rectal temperature of the mice at one hour intervals.
In this experiment, Imipramine (10,11-dihydro-N,N-dimethyl-5H-dibenz[b,f]azepine-5-propanamine) and Amitriptyline [3-(10,11-dihydro-5H-dibenzo[a,d]-cyclohepten-5-ylidene)-N,N-dimethyl-1-propanamine] were used as typical examples of known compounds for comparison and the results obtained with these compounds are also shown in FIG. 1(a).

[7] = 100 mg/kg into the duodenum, *p < 0.05

In the case of CN1[C@@H]2CC[C@H]1C[C@@H](OC(=O)C(CO)c1ccccc1)C2 (stereo partly drawn) [Atropine, reference compound], the “Percent Inhibition (stress ulcer)” value ([1]; 5 mg/kg) is reported as 93.0%, the “Ulcerous Index” value ([1]; 5 mg/kg) is reported as 5.3 mm and the “pH Value (gastric juice)” value (gastric secretion; 5 mg/kg into the duodenum) is reported as 2.22 ± 0.25. For the same compound, the “Amount of Gastric Juice” value (gastric secretion; 5 mg/kg into the duodenum) was 0.90 ± 0.09 mL and the “Amount of Output Secretion” value (gastric secretion; 5 mg/kg into the duodenum) was 57 ± 6.0 μ Eq.
In the case of CN(C)CCCn1cc(-c2ccccc2)c2ccccc2c1=O [Compound A, 2-(3-N,N-dimethylaminopropyl)-4-phenyl-1(2H)-isoquinolone tartrate], the “inhibition of ulcer generation caused by water-dipping restriction stress” value ([1]; dose of 25, 50 and 100 mg) is reported as “inhibits the ulcer generation caused by water-dipping restriction stress”, the “Percent Inhibition (stress ulcer)” value ([1]; 25 mg/kg) is reported as 23.5% and the “Ulcerous Index” value ([1]; 25 mg/kg) is reported as 58.0 mm. For the same compound, the “Percent Inhibition (stress ulcer)” value ([1]; 50 mg/kg) was 36.4%, the “Ulcerous Index” value ([1]; 50 mg/kg) was 48.2 mm and the “Percent Inhibition (stress ulcer)” value ([1]; 100 mg/kg) was 66.0%. For the same compound, the “Ulcerous Index” value ([1]; 100 mg/kg) was 25.3 mm, the “shift of histamine-induced contraction curve” value (shortened to “shift”) [2] was “shift the hitamine-induced contraction curve determined in guinea pig ileum to the right direction on the figures in parallel” and the anti-histamine activity [2] was “possess a specific anti-histamine activity”. For the same compound, the anti-cholinergic activity [3] was “non-specific anti-cholinergic activity”, the “pH Value (gastric juice)” value (gastric secretion; [7]) was 3.06 ± 0.44 and the “Amount of Gastric Juice” value (gastric secretion; 100 mg/kg into the duodenum) was 0.53 ± 0.12 mL. For the same compound, the “Amount of Output Secretion” value (gastric secretion; 100 mg/kg into the duodenum) was 22 ± 5.9 μ Eq, the “effect on volume of gastric juice, acid secretion and pH value” (gastric secretion) was “reduce the volume of gastric juice and the acid secretion and increase the pH value” and the “Number of Stretching” value ([4]; 25 mg/kg) was 33.8 ± 8.2. The “Percent Inhibition (stretching)” value ([4]; 50 mg/kg) was 53.7%, the “Number of Stretching” value ([4]; 50 mg/kg, *p < 0.05) was 16.9 ± 4.8 and the “Percent Inhibition (stretching)” value ([4]; 100 mg/kg) was 72.6%. The “Number of Stretching” value ([4]; 100 mg/kg, **p < 0.01) was 10.0 ± 2.8, the “inhibition of the pain reaction induced by acetic acid injection” value ([4]; 50 and 100 mg/kg) was “inhibited the pain reaction induced by acetic acid injection” and the LD50 at 168 h (Acute toxicity) was 662 mg/kg.
For CN(C)CCn1cc(-c2ccccc2)c2ccccc2c1=O [Compound B, 2-(2-N,N-dimethylaminoethyl)-4-phenyl-1(2H)-isoquinolone hydrochloride], the “inhibition of indomethacin-induced ulcer” value ([5]; 50 mg/kg) was “inhibit the indomethacin-induced ulcer”, the “Percent Inhibition (indomethacin ulcer)” value ([5]; 50 mg/kg) was 61.0% and the “Ulcerous Index” value ([5]; 50 mg/kg, n=8) was 6.0 mm. The “shift” value [2] was “shift the hitamine-induced contraction curve determined in guinea pig ileum to the right direction on the figures in parallel”, the anti-histamine activity [2] was “possess a specific anti-histamine activity” and the anti-cholinergic activity [3] was “non-specific anti-cholinergic activity”. The LD50 at 168 h (Acute toxicity) was 195 mg/kg.
With CN(C)CCCn1cc(C#N)c2ccccc2c1=O [Compound C, 4-cyano-2-(3-N,N-dimethylaminopropyl)-1(2H)-isoquinolone tartrate 1/2 hydrate] the “shift” value [2] was “shift the hitamine-induced contraction curve determined in guinea pig ileum to the right direction on the figures in parallel”, the anti-histamine activity [2] was “possess a specific anti-histamine activity” and the “rectal temperature decreased by pretreatment with reserpine” value [6] was “increases at a dose of 50 and 100 mg/kg significantly the rectal temperature”. For the same compound, the “pH Value (gastric juice)” value (gastric secretion; [7]) was 1.88 ± 0.10, the “Amount of Gastric Juice” value (gastric secretion; 100 mg/kg into the duodenum) was 1.85 ± 0.35 mL and the “Amount of Output Secretion” value (gastric secretion; 100 mg/kg into the duodenum) was 72 ± 5.3 μ Eq. The “effect on volume of gastric juice, acid secretion and pH value” (gastric secretion) was “reduce the volume of gastric juice and the acid secretion and increase the pH value” and the LD50 at 168 h (Acute toxicity) was 699 mg/kg.
With CC(Cn1cc(-c2ccccc2)c2ccccc2c1=O)N(C)C (stereo not drawn) [Compound D, 2-(2-N,N-dimethylaminopropyl)-4-phenyl-1(2H)-isoquinolone maleate] the “inhibition of indomethacin-induced ulcer” value ([5]; 50 mg/kg) was “inhibit the indomethacin-induced ulcer”, the “Percent Inhibition (indomethacin ulcer)” value ([5]; 50 mg/kg) was 73.0% and the “Ulcerous Index” value ([5]; 50 mg/kg, n=8) was 4.1 mm. For the same compound, the LD50 at 168 h (Acute toxicity) was 505 mg/kg.
With CCN1CCCC1CNC(=O)c1cc(S(N)(=O)=O)ccc1OC (stereo not drawn) [Sulpiride, 5(aminosulfonyl)-N--(1ethyl-2-pyrrolidinyl)-methyl 2-methoxybenzamide, reference compound] the “Ulcerous Index” value ([1]; 100 mg/kg) was 71.0 mm.
For “basic aluminum sucrose sulfate [Sucralfate, reference compound]”, the “Percent Inhibition (indomethacin ulcer)” value ([5]; 300 mg/kg) was 81.1% and the “Ulcerous Index” value ([5]; 300 mg/kg) was 2.9 mm.
